ED50 and zone of inhibition data for three molecules are collected here from patent publication US5792780A, “Azole compounds, their production and use” (Takeda Chemical Industries, Ltd., priority 1993, dated 1998).

Assay [1] has as its system Candida albicans TA. The experiment in a line: protective effect against experimental infection in mice (survival rate 7 days after infection). The assay is classed as in vivo, Crj:CDF1 mice. Particulars: po, 168 h, Table 7, P.O. once immediately after infection, 0.2% CMC, survival 7 days after infection. As for the experimental part:
Test Method: Five-week-old Crj:CDF1 mice were inoculated with the minimum lethal dose of Candida albicans TA intravenously. The test compound was suspended in a solution of 0.2% or 0.5% sodium carboxymethylcellulose (CMC). The suspension was administered orally once immediately after infection. The activity was expressed in terms of ED50 values calculated by the Reed and Muench method from the survival rate 7 days after infection.
Test Method: Five-week-old Crj:CDF1 mice were inoculated with the minimum lethal dose of Candida albicans TA intravenously. The test compound was suspended in a solution of 0.5% sodium carboxymethylcellulose (CMC). The suspension was administered orally once immediately after infection. The activity was expressed in terms of ED50 values calculated by the Reed and Muench method from the survival rate 7 days after infection.

For assay [2], the system named is Aspergillus fumigatus IFO 6344. The experiment in a line: growth inhibition zone, paper disc agar diffusion. The assay is classed as cell-based. The note with it: IFO6344, 48 h, Medium A, 1000 μg/ml, 28° C., two days, read-out: Diameter of growth inhibition zone. As for the experimental part: (§1) Evaluation of the antifungal activities of the compound of the present invention was conducted by the following method: a sheet of filter paper disc (manufactured by Toyo Seisakusho, 8 mm in diameter) soaked in a 1000 μg/ml solution of a compound of the present invention in methanol was placed on an agar plate containing various fungi, which was incubated at 28° C. for two days, and the diameter of the growth inhibition zone around the filter paper disc was measured. The following culture media were used:
(§2) A: yeast nitrogen base agar medium (pH 7.0)
(§3) B: peptone-yeast extract-glucose agar medium (pH 7.0)
Background: A growth-free zone around the sample is the usual read-out of agar diffusion tests.

Assay [3] has as its system Candida utilis IFO 0619. The experiment in a line: growth inhibition zone, paper disc agar diffusion. In kind it is cell-based. Particulars: Williopsis jadinii, IFO0619, 48 h, Medium A, 1000 μg/ml, 28° C., two days, read-out: Diameter of growth inhibition zone. The procedure:
as §1, §2, §3

Assay [4] concerns Aspergillus niger IFO 4066. As to the kind of experiment: growth inhibition zone, paper disc agar diffusion. In kind it is cell-based. The note with it: IFO4066, 48 h, Medium A, 1000 μg/ml, 28° C., two days, read-out: Diameter of growth inhibition zone. The procedure:
as §1, §2, §3

Assay [5] deals with Trichophyton rubrum IFO 5467. The experiment in a line: growth inhibition zone, paper disc agar diffusion. Particulars: IFO5467, 48 h, Medium B, 1000 μg/ml, 28° C., two days, read-out: Diameter of growth inhibition zone. The assay is classed as cell-based. As for the experimental part: as §1, §2, §3
Assay [6] relates to Candida albicans IFO 0583. As to the kind of experiment: growth inhibition zone, paper disc agar diffusion. In kind it is cell-based. The note with it: IFO0583, 48 h, Table 5, Medium A, 1000 μg/ml, 28° C., two days, read-out: Diameter of growth inhibition zone. The procedure: as §1, §2, §3
In assay [7] the test system is Cryptococcus neoformans IFO 0410. As to the kind of experiment: growth inhibition zone, paper disc agar diffusion. In kind it is cell-based. The note with it: IFO0410, 48 h, Medium A, 1000 μg/ml, 28° C., two days, read-out: Diameter of growth inhibition zone. As for the experimental part: as §1, §2, §3
For assay [8], the system named is Trichophyton mentagrophytes IFO 7522. The experiment in a line: growth inhibition zone, paper disc agar diffusion. The assay is classed as cell-based. The note with it: IFO7522, 48 h, Medium B, 1000 μg/ml, 28° C., two days, read-out: Diameter of growth inhibition zone. As for the experimental part:
as §1, §2, §3

In assay [9] the test system is Microsporum gypseum IFO 6076. As to the kind of experiment: growth inhibition zone, paper disc agar diffusion. In kind it is cell-based. The note with it: Nannizzia gypsea, IFO6076, 48 h, Medium B, 1000 μg/ml, 28° C., two days, read-out: Diameter of growth inhibition zone. As for the experimental part: as §1, §2, §3

Molecules are shown by their SMILES.

Consider `C[C@@H](N1CCN(c2ccc(OC(F)(F)F)cc2)C1=O)[C@](O)(Cn1cncn1)c1ccc(F)cc1F` [Compound 1, 1-[(1R,2R)-2-(2,4-difluorophenyl)-2-hydroxy-1-methyl-3-(1H-1,2,4-triazol-1-yl)propyl]-3-(4-trifluoromethoxyphenyl)-2-imidazolidinone], for which the ED50 – broadly, the dose at which the effect has come halfway, by size or by number of responders – in assay [1] amounted to 1.4 mg/kg. Besides, the zone of inhibition (usually the extent of the growth-free halo in a diffusion test) at 1000 µg/mL came to 31 mm in assay [2]; 25 mm in assay [3]; 24 mm in [4]; 47 mm in assay [5]; 36 mm in assay [6]; 27 mm in assay [7]. The zone of inhibition at 1000 µg/mL was 48 mm in assay [8] and 49 mm in assay [9].

On to `C[C@@H](N1CCN(c2ccc(C(F)(F)F)cc2)C1=O)[C@](O)(Cn1cncn1)c1ccc(F)cc1F` [Compound 4, 1-[(1R,2R)-2-(2,4-difluorophenyl)-2-hydroxy-1-methyl-3-(1H-1,2,4-triazol-1-yl)propyl]-3-(4-trifluoromethylphenyl)-2-imidazolidinone], for which the 50% effective dose (ED50) in [1] came to 0.65 mg/kg. Further, the zone of inhibition at 1000 µg/mL in assay [2] stood at 34 mm; in [3] it was 31 mm; in assay [4], 26 mm; in assay [5], 43 mm; in assay [6], 41 mm; in assay [7], 29 mm. Besides, the zone of inhibition at 1000 µg/mL in [8] was found to be 39 mm; in assay [9], 42 mm.

With `C[C@@H](N1CCN(c2ccc(F)cc2F)C1=O)[C@](O)(Cn1cncn1)c1ccc(F)cc1F` [Compound 2, 1-[(1R,2R)-2-(2,4-difluorophenyl)-2-hydroxy-1-methyl-3-(1H-1,2,4-triazol-1-yl)propyl]-3-(2,4-difluorophenyl)-2-imidazolidinone], the zone of inhibition at 1000 µg/mL in assay [2] came to 30 mm; in [3], 29 mm; in [4] it was 27 mm; in assay [5], 50 mm; in [6], 45 mm; in [7], 31 mm. In addition, the figures for the zone of inhibition at 1000 µg/mL in assay [8] and in assay [9] were 40 mm and 41 mm, respectively.
